Laboratory results reported in PMC11477294, “In Vitro Profiling of the Antiviral Peptide TAT-I24” (International Journal of Molecular Sciences, 2024).
Where a SMILES comes first, the peptide text is derived from it.

Legend:
HEK293 cells = experiment: Cell viability assay (CellTiter-Blue) in HEK293 cells; type: cell-based; settings: 72 h at 37 °C, 3-fold dilution series starting with 20 µM, triplicate, non-linear regression (curve fit)
Procedure: HEK293 cells were seeded at a density of 2.5 × 10^3 cells/100 µL per well in a 96-well plate (Sarstedt, Germany). In addition, a serial 1:2 dilution of the cell suspension was added to each plate to generate a standard curve. On the next day, cells were treated with serial 1:3 peptide dilutions in triplicate and incubated for 72 h at 37 °C. Then, 20 µL of CellTiter-Blue® Cell Viability Assay (Promega, Mannheim, Germany) was added to each well and incubated at 37 °C for a further 1–2 h. Fluorescence was recorded using a GloMax®-Multi Detection System (Promega, Mannheim, Germany). The percentage of viable cells was calculated from the cell dilution series from each plate by linear regression analysis. The selectivity index was calculated using the following formula: SI = CC50/IC50.
Figure S1. Cell viability assay in HEK293 cells in the presence of peptides. Cells were incubated with 3 -fold dilution series of peptides starting with a concentration of 20 µM for 72 hours and measured using the Cell Titer Blue assay. Curve fitting of % viable cells of untrea ted control was performed using Graph Pad Prism softwar e.
(1 picture or pasted object on this page, not shown here)

cells = settings: not associated with cell toxicity; cited from earlier work

Compound: CC(C)C[C@H](NC(=O)[C@H](CS)NC(=O)[C@H](CCC(N)=O)NC(=O)[C@@H]1CCCN1C(=O)[C@@H]1CCCN1C(=O)[C@H](CCCNC(=N)N)NC(=O)[C@H](CCCNC(=N)N)NC(=O)[C@H](CCCNC(=N)N)NC(=O)[C@H](CCC(N)=O)NC(=O)[C@H](CCCNC(=N)N)NC(=O)[C@H](CCCNC(=N)N)NC(=O)[C@H](CCCCN)NC(=O)[C@H](CCCCN)NC(=O)[C@H](CCCNC(=N)N)NC(=O)CN)C(=O)N[C@@H](C)C(=O)N[C@@H](Cc1ccccc1)C(=O)N[C@@H](Cc1ccc(O)cc1)C(=O)N[C@@H](C)C(=O)N[C@@H](CS)C(=O)N[C@@H](Cc1ccccc1)C(=O)N[C@@H](CS)C(=O)O [TAT-I24] (H-GRKKRRQRRRPPQCLAFYACFC-OH)
- HEK293 CC50 (HEK293 cells): 124 µM
- concentration with morphological changes such as cell aggregation (cells): > 10 µM
